Source: PubChem BioAssay AID1919008 (Molecular Pharmacology Branch, DTP, NCI, 2023)

System: DMS-114 complex spheroids with HUVEC/MSC, growth % test/control
Assay: Anticancer human tumor DMS-114 cell line growth inhibition [AhR];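 also: spheroids exposed to agents for 7 days before readout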;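 as to viability, T/C: 100% = DMSO vehicle control wells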
Settings: for IC50: curve of first compound; for viability, T/C: stronger effect = lower value
In short: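 Complex tumor spheroids co-cultured with HUVEC and human MSC stroma; AhR antagonists tested in combination with standard-of-care and investigational agents. Top concentration at or near clinical Cmax (else 10 microM), half-log dilutions; growth expressed as percent test/control.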

[1] = second compound 0.1 µM, first compound 0.0316 µM
[2] = second compound 0.1 µM, first compound 0.1 µM
[3] = second compound 0.1 µM, first compound 0.316 µM
[4] = second compound 0.1 µM, first compound 1 µM
[5] = second compound 0.1 µM, first compound 3.16 µM
[6] = second compound 0.1 µM, first compound 10 µM
[7] = second compound 0.316 µM, first compound 0.0316 µM
[8] = second compound 0.316 µM, first compound 0.1 µM
[9] = second compound 0.316 µM, first compound 0.316 µM
[10] = second compound 0.316 µM, first compound 1 µM
[11] = second compound 0.316 µM, first compound 3.16 µM
[12] = second compound 0.316 µM, first compound 10 µM
[13] = second compound 1 µM, first compound 0.0316 µM
[14] = second compound 1 µM, first compound 0.1 µM
[15] = second compound 1 µM, first compound 0.316 µM
[16] = second compound 1 µM, first compound 1 µM
[17] = second compound 1 µM, first compound 3.16 µM
[18] = second compound 1 µM, first compound 10 µM
[19] = second compound 3.16 µM, first compound 0.0316 µM
[20] = second compound 3.16 µM, first compound 0.1 µM
[21] = second compound 3.16 µM, first compound 0.316 µM
[22] = second compound 3.16 µM, first compound 1 µM
[23] = second compound 3.16 µM, first compound 3.16 µM
[24] = second compound 3.16 µM, first compound 10 µM
[25] = second compound 10 µM, first compound 0.0316 µM
[26] = second compound 10 µM, first compound 0.1 µM
[27] = second compound 10 µM, first compound 0.316 µM
[28] = second compound 10 µM, first compound 1 µM
[29] = second compound 10 µM, first compound 3.16 µM
[30] = second compound 10 µM, first compound 10 µM

## CC(C)c1c(-c2ccccc2)nc2c(C#N)c[nH]n2c1=O + Cc1cncc(-c2nc(NCCc3c[nH]c4ccccc34)c3ncn(C(C)C)c3n2)c1
Second compound 0.1 µM
  IC50: > 10000 nM
Second compound 0.316 µM
  IC50: > 10000 nM
Second compound 1 µM
  IC50: > 10000 nM
Second compound 3.16 µM
  IC50: > 10000 nM
Second compound 10 µM
  IC50: < 31.6 nM
[1]
  viability, T/C: 111%
[2]
  viability, T/C: 100%
[3]
  viability, T/C: 103%
[4]
  viability, T/C: 108%
[5]
  viability, T/C: 97.4%
[6]
  viability, T/C: 97.4%
[7]
  viability, T/C: 107%
[8]
  viability, T/C: 97.9%
[9]
  viability, T/C: 103%
[10]
  viability, T/C: 92.6%
[11]
  viability, T/C: 111%
[12]
  viability, T/C: 95.3%
[13]
  viability, T/C: 107%
[14]
  viability, T/C: 107%
[15]
  viability, T/C: 102%
[16]
  viability, T/C: 112%
[17]
  viability, T/C: 101%
[18]
  viability, T/C: 108%
[19]
  viability, T/C: 92.9%
[20]
  viability, T/C: 80.6%
[21]
  viability, T/C: 83.3%
[22]
  viability, T/C: 88.8%
[23]
  viability, T/C: 86.4%
[24]
  viability, T/C: 92.6%
[25]
  viability, T/C: 30.4%
[26]
  viability, T/C: 40.1%
[27]
  viability, T/C: 33.3%
[28]
  viability, T/C: 40%
[29]
  viability, T/C: 32.5%
[30]
  viability, T/C: 46.4%

## CC1COCCN1c1cc(-c2ccnn2C)c2ccnc(-c3ccn[nH]3)c2n1 (stereo not given) + Cc1cncc(-c2nc(NCCc3c[nH]c4ccccc34)c3ncn(C(C)C)c3n2)c1
Second compound 0.1 µM
  IC50: 38 nM
Second compound 0.316 µM
  IC50: 51 nM
Second compound 1 µM
  IC50: 41.5 nM
Second compound 3.16 µM
  IC50: 41.8 nM
Second compound 10 µM
  IC50: < 3.16 nM
Second compound 0.1 µM, first compound 0.00316 µM
  viability, T/C: 90.6%
Second compound 0.1 µM, first compound 0.01 µM
  viability, T/C: 85.9%
[1]
  viability, T/C: 51%
[2]
  viability, T/C: 29.9%
[3]
  viability, T/C: 19.6%
[4]
  viability, T/C: 12.8%
Second compound 0.316 µM, first compound 0.00316 µM
  viability, T/C: 97.1%
Second compound 0.316 µM, first compound 0.01 µM
  viability, T/C: 93.7%
[7]
  viability, T/C: 61.8%
[8]
  viability, T/C: 31.4%
[9]
  viability, T/C: 19.8%
[10]
  viability, T/C: 12%
Second compound 1 µM, first compound 0.00316 µM
  viability, T/C: 87.5%
Second compound 1 µM, first compound 0.01 µM
  viability, T/C: 92.6%
[13]
  viability, T/C: 55.3%
[14]
  viability, T/C: 27.9%
[15]
  viability, T/C: 23.6%
[16]
  viability, T/C: 11.7%
Second compound 3.16 µM, first compound 0.00316 µM
  viability, T/C: 83.9%
Second compound 3.16 µM, first compound 0.01 µM
  viability, T/C: 85.9%
[19]
  viability, T/C: 55.8%
[20]
  viability, T/C: 26.7%
[21]
  viability, T/C: 17%
[22]
  viability, T/C: 11.2%
Second compound 10 µM, first compound 0.00316 µM
  viability, T/C: 28.8%
Second compound 10 µM, first compound 0.01 µM
  viability, T/C: 29.6%
[25]
  viability, T/C: 22.6%
[26]
  viability, T/C: 15.5%
[27]
  viability, T/C: 9.12%
[28]
  viability, T/C: 7.26%

## COc1ccc([C@@H](O)c2cc(-c3ncnc4cc(N5CCOCC5)ccc34)c(F)cc2Cl)nn1 + Cc1cncc(-c2nc(NCCc3c[nH]c4ccccc34)c3ncn(C(C)C)c3n2)c1
Second compound 0.1 µM
  IC50: > 10000 nM
Second compound 0.316 µM
  IC50: > 10000 nM
Second compound 1 µM
  IC50: > 10000 nM
Second compound 3.16 µM
  IC50: 7740 nM
Second compound 10 µM
  IC50: < 31.6 nM
[1]
  viability, T/C: 125%
[2]
  viability, T/C: 95.8%
[3]
  viability, T/C: 102%
[4]
  viability, T/C: 104%
[5]
  viability, T/C: 107%
[6]
  viability, T/C: 55.7%
[7]
  viability, T/C: 101%
[8]
  viability, T/C: 93%
[9]
  viability, T/C: 96.2%
[10]
  viability, T/C: 104%
[11]
  viability, T/C: 87.5%
[12]
  viability, T/C: 52.2%
[13]
  viability, T/C: 98.7%
[14]
  viability, T/C: 103%
[15]
  viability, T/C: 99.8%
[16]
  viability, T/C: 107%
[17]
  viability, T/C: 94.4%
[18]
  viability, T/C: 53.2%
[19]
  viability, T/C: 87%
[20]
  viability, T/C: 90.1%
[21]
  viability, T/C: 98.7%
[22]
  viability, T/C: 94.5%
[23]
  viability, T/C: 85.4%
[24]
  viability, T/C: 39.5%
[25]
  viability, T/C: 35.6%
[26]
  viability, T/C: 38.9%
[27]
  viability, T/C: 29.7%
[28]
  viability, T/C: 29.7%
[29]
  viability, T/C: 17.9%
[30]
  viability, T/C: 12.4%
